Read-outs that look alike come from different tables or passages of the source.
Test system: B cells in human blood
Assay: Inhibition of B cell activation in whole blood measured by CD69 expression
Type: cell-based
Conditions: read-out: Human Whole Blood
Description: Inhibition of B Cell Activation in Whole Blood Measured by CD69 Expression
A procedure to test the ability of Btk inhibitors to suppress B cell receptor-mediated activation of B cells in human blood is as follows:
Human whole blood (HWB) is obtained from healthy volunteers, with the following restrictions: 24 hr drug-free, non-smokers. Blood is collected by venipuncture into Vacutainer tubes anticoagulated with sodium heparin. Test compounds are diluted to […] the desired starting drug concentration in PBS (20×), followed by three-fold serial dilutions in 10% DMSO in PBS to produce a nine point dose-response curve. 5.5 μl of each compound dilution is added in duplicate to a 2 ml96-well V bottom plate (Analytical Sales and Services, #59623-23); 5.5 μl of 10% DMSO in PBS is added to control and no-stimulus wells. HWB (100 μl) is added to each well, and after mixing the plates are incubated at 37 C, 5% CO2, 100% humidity for 30 minutes. Goat F(ab′)2 anti-human IgM (Southern Biotech, #2022-14) (10 μl of a […] solution, 50 μg/ml final concentration) is added to each well (except the no-stimulus wells) with mixing and the plates are incubated for an additional 20 hours.
At the end of the 20 hour incubation, samples are incubated with florescent-probe-labeled anti-bodies (15 μl PE Mouse anti-Human CD20, BD Pharmingen, #555623, and/or 20 ul APC Mouse anti-Human CD69, BD Pharmingen #555533) for 30 minutes, at 37 C, 5% CO2, 100% humidity. Included are induced control, unstained and single stains for compensation adjustments and initial voltage settings. Samples are then lysed with 1 ml of 1× Pharmingen Lyse Buffer (BD Pharmingen #555899), and plates are centrifuged at 1800 rpm for 5 minutes. Supernatants are removed via suction and the remaining pellets are lysed again with another 1 ml of 1× Pharmingen Lyse Buffer, and plates are spun down as before. Supernatants are aspirated and remaining pellets are washed in FACs buffer (PBS+1% FBS). After a final spin, the supernantants are removed and pellets are resuspended in 180 μl of FACs buffer. Samples are transferred to a 96 well plate suitable to be run on the HTS 96 well system on the BD LSR II flow cytometer.
Using appropriate excitation and emission wavelengths for the fluorophores used, data are acquired and percent positive cell values are obtained using Cell Quest Software. Results are initially analyzed by FACS analysis software (Flow Jo). […] The IC50 values are calculated using XLfit software version 3, equation 201.
Representative compound data for this assay are listed below in Table II.

[1] = CD69-positive, CD20-positive cells after anti-IgM stimulation, human whole blood, 20 hours

Cn1nc(-c2cccc(-n3ncc4cc(C(C)(C)C)cc(F)c4c3=O)c2CO)cc(Nc2ccc(N3CCC(C)(O)CC3)cn2)c1=O [I-64, 6-tert-butyl-8-fluoro-2-(3-(5-(5-(4-hydroxy-4-methylpiperidin-1-yl)pyridin-2-ylamino)-1-methyl-6-oxo-1,6-dihydropyridazin-3-yl)-2-(hydroxymethyl)-phenyl)phthalazin-1(2H)-one]
IC50 [1]: 66 nM

Cn1nc(-c2cccc(-n3ncc4cc(C(C)(C)C)cc(F)c4c3=O)c2CO)cc(Nc2ccc(N3CCC(O)CC3)cn2)c1=O [I-65, 6-tert-butyl-8-fluoro-2-(2-(hydroxymethyl)-3-(5-(5-(4-hydroxypiperidin-1-yl)pyridin-2-ylamino)-1-methyl-6-oxo-1,6-dihydropyridazin-3-yl)phenyl)phthalazin-1(2H)-one]
IC50 [1]: 62 nM

CN1C[C@H]2CC[C@@H](C1)N2c1ccc(Nc2cc(-c3cccc(-n4ncc5cc(C(C)(C)C)cc(F)c5c4=O)c3CO)nn(C)c2=O)nc1 [I-66, 6-tert-Butyl-8-fluoro-2-(2-hydroxymethyl-3-{1-methyl-5-[5-((1R,5S)-3-methyl-3,8-diaza-bicyclo[3.2.1]oct-8-yl)-pyridin-2-ylamino]-6-oxo-1,6-dihydro-pyridazin-3-yl}-phenyl)-2H-phthalazin-1-one]
IC50 [1]: 23 nM

CN1CCC(c2ccc(Nc3cc(-c4cccc(-n5ncc6cc(C(C)(C)C)cc(F)c6c5=O)c4CO)nn(C)c3=O)nc2)CC1 [I-67, 6-tert-Butyl-8-fluoro-2-{2-hydroxymethyl-3-[1-methyl-5-(1′-methyl-1′,2′,3′,4′,5′,6′-hexahydro-[3,4]bipyridinyl-6-ylamino)-6-oxo-1,6-dihydro-pyridazin-3-yl]-phenyl}-2H-phthalazin-1-one]
IC50 (Homo sapiens, 20 h): 4 nM

CN1CCC(c2ccc(Nc3cc(-c4cccc(-n5ccc6cc(C(C)(C)C#N)cc(F)c6c5=O)c4CO)nn(C)c3=O)nc2)CC1 [I-71, 2-(8-Fluoro-2-{2-hydroxymethyl-3-[1-methyl-5-(1′-methyl-1′,2′,3′,4′,5′,6′-hexahydro-[3,4′]bipyridinyl-6-ylamino)-6-oxo-1,6-dihydro-pyridazin-3-yl]-phenyl}-1-oxo-1,2-dihydro-isoquinolin-6-yl)-2-methyl-propionitrile]
IC50 [1]: 32 nM

Cn1nc(Nc2cc(-c3cccc(-n4ccc5cc(C(C)(C)C#N)cc(F)c5c4=O)c3CO)nn(C)c2=O)cc1CN1CCC1 [I-72, 2-(2-{3-[5-(5-Azetidin-1-ylmethyl-1-methyl-1H-pyrazol-3-ylamino)-1-methyl-6-oxo-1,6-dihydro-pyridazin-3-yl]-2-hydroxymethyl-phenyl}-8-fluoro-1-oxo-1,2-dihydro-isoquinolin-6-yl)-2-methyl-propionitrile]
IC50 [1]: 56 nM

Cn1nc(-c2cccc(-n3ccc4cc(C(C)(C)C#N)cc(F)c4c3=O)c2CO)cc(Nc2ccc(OC(C)(C)CN3CCC3)cn2)c1=O [I-73, 2-[2-(3-{5-[5-(2-Azetidin-1-yl-1,1-dimethyl-ethoxy)-pyridin-2-ylamino]-1-methyl-6-oxo-1,6-dihydro-pyridazin-3-yl}-2-hydroxymethyl-phenyl)-8-fluoro-1-oxo-1,2-dihydro-isoquinolin-6-yl]-2-methyl-propionitrile]
IC50 [1]: 30 nM

CN1CCn2nc(Nc3cc(-c4cccc(-n5ccc6cc(C(C)(C)C#N)cc(F)c6c5=O)c4CO)nn(C)c3=O)cc2C1 [I-74, 2-(8-Fluoro-2-{2-hydroxymethyl-3-[1-methyl-5-(5-methyl-4,5,6,7-tetrahydro-pyrazolo[1,5-a]pyrazin-2-ylamino)-6-oxo-1,6-dihydro-pyridazin-3-yl]-phenyl}-1-oxo-1,2-dihydro-isoquinolin-6-yl)-2-methyl-propionitrile]
IC50 [1]: 34 nM

CN(C)C(=O)c1ccc(Nc2cc(-c3cccc(-n4ccc5cc(C(C)(C)C#N)cc(F)c5c4=O)c3CO)nn(C)c2=O)nc1 [I-75, 6-(6-{3-[6-(Cyano-dimethyl-methyl)-8-fluoro-1-oxo-1H-isoquinolin-2-yl]-2-hydroxymethyl-phenyl}-2-methyl-3-oxo-2,3-dihydro-pyridazin-4-ylamino)-N,N-dimethyl-nicotinamide]
IC50 [1]: 180 nM

From patent US8481540B2, “Inhibitors of bruton's tyrosine kinase” (Hoffmann-La Roche Inc., priority 2010, dated 2013)
